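Tested at 5 concentrations; 48 h exposure; 96-well plates; endpoints linearly interpolated, else capped at highest concentration. GI50 is the concentration that inhibits growth by half. TGI denotes the concentration required for complete inhibition of growth.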
Experiments:
Assay in all cases: DTP human tumour cell line panel, 48 h
[1] = tested on: HOP-62 NSCLC
[2] = tested on: M14 melanoma
[3] = tested on: HOP-92 NSCLC
[4] = tested on: BT-549 breast
[5] = tested on: SK-MEL-5 melanoma
[6] = tested on: MDA-MB-435
[7] = tested on: NCI-H226 lung
[8] = tested on: LOX IMVI melanoma
[9] = tested on: RXF 393 renal
[10] = tested on: UACC-257 melanoma
[11] = tested on: SK-OV-3 ovarian
[12] = tested on: IGROV1 ovarian
[13] = tested on: ACHN renal
[14] = tested on: K-562 leukemia
[15] = tested on: NCI-H460 lung
[16] = tested on: SF-268 CNS
[17] = tested on: MDA-MB-231 breast
[18] = tested on: OVCAR-3 ovarian
[19] = tested on: SF-295 CNS
[20] = tested on: HCC-2998 colon
[21] = tested on: MOLT-4 leukemia
[22] = tested on: MCF7 breast
[23] = tested on: T-47D breast
[24] = tested on: CAKI-1 renal
[25] = tested on: A498 renal
[26] = tested on: RPMI-8226 leukemia
[27] = tested on: A549 NSCLC
[28] = tested on: HT29 colon
[29] = tested on: PC-3 prostate
[30] = tested on: MALME-3M melanoma

CCN1C(=O)N(CC)C2NNC(Sc3c(C(=O)O)c4ccccc4n(C4CCCC4)c3=O)=NC21 (centres undefined)
TGI [1]: 37.2 µM | GI50 [2]: 3.28 µM | TGI [2]: 13.3 µM | GI50 [3]: 10.3 µM | TGI [3]: 35 µM | GI50 [4]: 9.6 µM | TGI [4]: 24.4 µM | GI50 [5]: 3.49 µM | TGI [5]: 13.6 µM | GI50 [6]: 1.47 µM | TGI [6]: 3.85 µM | GI50 [7]: 4.34 µM | TGI [7]: 17.7 µM | GI50 [8]: 3.87 µM | TGI [8]: 16.2 µM | GI50 [9]: 2.85 µM | TGI [9]: 11.9 µM | GI50 [10]: 7.65 µM | TGI [10]: 28.2 µM | GI50 [11]: 3.35 µM | TGI [11]: 20.8 µM | GI50 [12]: 4.41 µM | TGI [12]: 29.4 µM | GI50 [13]: 4.36 µM | TGI [13]: 16.3 µM | GI50 [14]: 3.13 µM | TGI [14]: > 100 µM | GI50 [15]: 2.6 µM | TGI [15]: 10.7 µM | GI50 [16]: 4.47 µM | TGI [16]: 45.4 µM | GI50 [17]: 3.03 µM | TGI [17]: 11.5 µM | GI50 [18]: 3.21 µM | TGI [18]: 12.8 µM | GI50 [19]: 2.41 µM | TGI [19]: 7.88 µM | GI50 [20]: 2.84 µM | TGI [20]: 9.8 µM | GI50 [21]: 3.88 µM | TGI [21]: 50.3 µM | GI50 [22]: 2.07 µM | TGI [22]: 13.3 µM | GI50 [23]: 7.2 µM | TGI [23]: 72.7 µM | GI50 [24]: 3.97 µM | TGI [24]: 16.5 µM | GI50 [25]: 14.8 µM | TGI [25]: 42.8 µM | GI50 [26]: 4.17 µM | TGI [26]: 25.9 µM | GI50 [27]: 4.04 µM | TGI [27]: 17.8 µM | GI50 [28]: 3.13 µM | TGI [28]: 10.5 µM | GI50 [29]: 4.06 µM | TGI [29]: 33.6 µM | GI50 [30]: 7.36 µM | TGI [30]: 25.6 µM

From PubChem BioAssay (NCI)
